Where two headings read alike, the source gives them in different places.
Legend:
[1] = biological target: T1, Gastrin receptor (gastric glands) (Cavia porcellus, UniProt H0VZC5); test: Gastrin Receptor Binding in Guinea Pig Gastric Glands; set-up: species or system guinea pig (male Hartley)
T1 construct: The washed guinea pig gastric glands prepared as above were resuspended; from tissue; host or cells: guinea pig gastric mucosal glands (male Hartley)
T1 sequence (H0VZC5 1-426): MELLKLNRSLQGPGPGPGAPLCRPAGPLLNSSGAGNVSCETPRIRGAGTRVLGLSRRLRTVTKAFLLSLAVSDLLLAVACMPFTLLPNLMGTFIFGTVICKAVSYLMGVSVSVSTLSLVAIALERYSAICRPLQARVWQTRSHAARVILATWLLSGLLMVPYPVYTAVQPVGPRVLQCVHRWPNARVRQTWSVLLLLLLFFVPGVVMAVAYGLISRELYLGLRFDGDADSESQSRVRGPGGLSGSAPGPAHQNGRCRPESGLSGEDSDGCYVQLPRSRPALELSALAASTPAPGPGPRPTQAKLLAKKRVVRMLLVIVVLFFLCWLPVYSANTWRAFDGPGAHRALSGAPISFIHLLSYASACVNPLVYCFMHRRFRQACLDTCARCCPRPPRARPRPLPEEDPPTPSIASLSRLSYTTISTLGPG

[2] = biological target: T2, CCK receptor (pancreas) (Rattus norvegicus, UniProt P30551); test: CCK Receptor Binding (Pancreas): inhibition of ^125 I-CCK-33 binding; set-up: species or system Male Sprague-Dawley rats
T2 construct: The whole pancreas was dissected free of fat tissue and was homogenized; from tissue; host or cells: rat pancreas membranes (Sprague-Dawley)
T2 sequence (P30551 1-444): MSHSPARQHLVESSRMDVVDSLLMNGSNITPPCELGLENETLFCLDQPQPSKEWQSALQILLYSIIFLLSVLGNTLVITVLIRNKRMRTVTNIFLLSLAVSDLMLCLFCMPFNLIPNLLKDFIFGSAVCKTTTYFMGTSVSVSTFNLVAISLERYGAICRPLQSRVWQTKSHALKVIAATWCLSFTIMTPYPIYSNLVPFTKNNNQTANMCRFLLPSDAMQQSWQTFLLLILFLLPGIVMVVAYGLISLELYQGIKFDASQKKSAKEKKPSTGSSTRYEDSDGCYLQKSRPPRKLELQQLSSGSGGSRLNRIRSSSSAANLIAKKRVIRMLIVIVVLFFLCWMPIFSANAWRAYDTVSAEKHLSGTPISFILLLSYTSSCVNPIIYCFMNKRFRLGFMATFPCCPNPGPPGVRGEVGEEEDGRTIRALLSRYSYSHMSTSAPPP
How it was run: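 Bound ^125I-CCK-33 was counted in pellets after a 30 min, 37° C incubation followed by centrifugation. Membranes came from male Sprague-Dawley rat pancreas, assayed in Tris HCl pH 7.7 containing DTT, bacitracin, PMSF and o-phenanthroline. For Scatchard analysis, tracer was diluted with rising unlabelled CCK-33.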

[3] = biological target: T3, CCK receptor (brain, cerebral cortex) (Cavia porcellus, UniProt H0VZC5); test: biochemical; format: binding, Male Hartley guinea pigs
T3 construct: Cerebral cortex was dissected and used as a receptor source; from tissue; host or cells: guinea pig cerebral cortex membranes (male Hartley)
T3 sequence (H0VZC5 1-426): T1 sequence (H0VZC5 1-426)
How it was run: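 Binding of [radiolabeled] CCK-33 measured by gamma counting of centrifuged pellets after 2 h at 25°C. Membranes came from guinea pig brain cortex, suspended in 10 mM HEPES, 5 mM MgCl2, 1 mM EGTA, 0.25 mg/ml bacitracin, 0.4% BSA.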

[4] = ^125 I-gastrin, 25° C., 30 minutes, read-out: IC50 ^125 I-Gastrin Gastric Glands
[5] = IC50 ^125 I-CCK Pancreas, rat pancreas membranes, ^125 I-CCK-33, 37° C., 30 minutes
[6] = guinea pig cerebral cortex, ^125 I-CCK-33, 25° C., 2 hours; read-out: IC50 ^125 I-CCK Brain
[7] = IC50 ^125 I-Gastrin Gastric Glands, 25° C., 30 minutes
[8] = IC50 ^125 I-CCK Brain, guinea pig cerebral cortex, ^125 I-CCK-33, 25° C., 2 hours
[9] = rat pancreas membranes, ^125 I-CCK-33, 37° C., 30 minutes; read-out: IC50 ^125 I-CCK Pancreas

Structure (SMILES)	IC50 [1, 4]	IC50 [2, 5]	IC50 [3, 8]	IC50 [2, 9]	other results
O=C1Nc2ccc(Cl)cc2C(c2ccccc2)=N[C@@H]1Cc1cn(-c2ccc([N+](=O)[O-])cc2[N+](=O)[O-])cn1 [Example 55, 7-Chloro-1,3-dihydro-3(R)-[(3'-(2,4-dinitrophenyl)imidazol-5'-yl)-methyl]-5-phenyl-2H-1,4-benzodiazepin-2-one]	76 µM	7.6 µM			IC50 [3, 6]: 38.6 µM
NCCCC[C@H]1N=C(c2ccccc2F)c2ccccc2NC1=O [Example 65, 1,3-Dihydro-5-(2'-fluorophenyl)-3(R)-(4-amino)butyl-2H-1,4-benzodiazepin-2-one]		> 100 µM	> 100 µM		IC50 [1, 7]: > 1000 µM
CN1C(=O)[C@@H](N)N=C(c2ccccc2)c2ccccc21 [Example 85a, 3(S)-(-)-3-Amino-1,3-dihydro-1-methyl-5-phenyl-2H-1,4-benzodiazepin-2-one]			> 100 µM	100 µM	IC50 [1, 7]: > 100 µM
CN1C(=O)[C@@H](NC(=O)c2cc3ccccc3[nH]2)N=C(c2ccccc2F)c2ccccc21 [Example 88, 3(S)-(+)-1,3-Dihydro-5-(2-fluorophenyl)-3-(2-indole-carbonylamino)-1-methyl-2H-1,4-benzodiazepin-2-one]	0.027 µM		0.3 µM	0.0006 µM	
CN1C(=O)[C@H](NC(=O)c2cc3ccccc3[nH]2)N=C(c2ccccc2F)c2ccccc21 [Example 89, 3(R)-(-)-1,3-Dihydro-5-(2-fluorophenyl)-3-(2-indole-carbonylamino)-1-methyl-2H-1,4-benzodiazepin-2-one]	0.24 µM		1.1 µM	0.019 µM	
CN1C(=O)[C@H](NC(=O)c2ccc(Cl)cc2)N=C(c2ccccc2F)c2ccccc21 [Example 90, 3(R)-(-)-1,3-Dihydro-3-(4-chlorobenzoylamino)-5-(2-fluorophenyl)-1-methyl-2H-1,4-benzodiazepin-2-one]	5.2 µM		11 µM	0.049 µM	
CN1C(=O)[C@@H](NC(=O)c2ccc(Cl)cc2)N=C(c2ccccc2F)c2ccccc21 [Example 91, 3(S)-(+)-1,3-Dihydro-3-(4-chlorobenzoylamino)-5-(2-fluorophenyl)-1-methyl-2H-1,4-benzodiazepin-2-one]	0.8 µM		2.9 µM	0.0025 µM	
CN1C(=O)[C@@H](NC(=O)c2ccc(Br)cc2)N=C(c2ccccc2)c2ccccc21 [Example 92, 3(S)-(-)-1,3-Dihydro-3-(4-bromobenzoylamino)-1-methyl-5-phenyl-2H-1,4-benzodiazepin-2-one]	0.62 µM	0.0043 µM	1.6 µM		
CN1C(=O)[C@H](NC(=O)c2ccc(Br)cc2)N=C(c2ccccc2)c2ccccc21 [Example 93, 3(R)-(+)-1,3-Dihydro-3-(4-bromobenzoylamino)-1-methyl-5-phenyl-2H-1,4-benzodiazepin-2-one]	2 µM		2.9 µM	0.7 µM	
O=C(O)CCN1C(=O)[C@@H](Cc2c[nH]c3ccccc23)N=C(c2ccccc2F)c2ccccc21 [Example 103, (2-Carboxyethyl)-1,3-dihydro-5-(2-fluorophenyl)-3(R)-(3'-indolyl)methyl-2H-1,4-benzodiazepin-2-one]					IC50 ([1]; read-out: IC50 ^125 I-Gastrin Gastric Glands, 25° C., 30 minutes): 5.8 µM; IC50 ([2]; read-out: IC50 ^125 I-CCK Pancreas; rat pancreas membranes, ^125 I-CCK-33, 37° C., 30 minutes): 1.4 µM; IC50 ([3]; read-out: IC50 ^125 I-CCK Brain; guinea pig cerebral cortex, ^125 I-CCK-33, 25° C., 2 hours): 11 µM
O=CNc1ccccc1C(=O)CC1N=C(c2ccccc2F)c2ccccc2NC1=O (stereo not drawn) [Example 104, 1,3-Dihydro-5-(2-fluorophenyl)-3-(2-formylaminobenzoylmethyl)-2H-1,4-benzodiazepin-2-one]	> 100 µM	0.3 µM			IC50 [3, 6]: > 100 µM
O=C(NC1N=C(c2ccccc2)c2ccccc2NC1=O)C1Cc2ccccc2N1 (stereo not drawn) [Example 133, 1,3-Dihydro-3-(RS)-(2-indolinecarbonylamino)-5-phenyl-2-H-1,4-benzodiazepin-2-one]			> 40 µM	0.9 µM	IC50 [1, 7]: 110 µM

— US4820834A, “Benzodiazepine analogs” (priority 1987, dated 1989)
